Source: patent US7671054B1, “Reverse-turn mimetics and method relating thereto” (Choongwae Pharma Corporation, priority 2001, dated 2010)

Test system: TCF4/β-catenin transcription (TOPFlash) in SW480 cells
Assay: Reporter gene assay (TOPFlash luciferase)
Assay type: cell-based
Conditions: Homo sapiens, SW480, Table 4; Reporter gene assay as described in Example 6; read-out: IC50
In short: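 SW480 cells transiently co-transfected with TOPFlash and pRL-null (4:1 µg) using Superfect, then reseeded at 3×10^4 cells/well and incubated overnight at 37 °C. Compound treatment lasted 24 h before luciferase read-out.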

Structure (SMILES)	IC50
C#CCN1CC(=O)N2[C@@H](Cc3ccc(O)cc3)C(=O)N(Cc3ccc(F)cc3F)[C@@H](C)[C@@H]2N1C(=O)NCc1ccccc1 [Compound 111]	7.2 ± 0.8 µM
C#CCN1CC(=O)N2[C@@H](Cc3ccc(O)cc3)C(=O)N(Cc3ccc(C)c(N4CCOCC4)c3)C[C@@H]2N1C(=O)NCc1ccccc1 [Compound 134]	4.5 ± 0.9 µM
C[C@H]1[C@H]2N(C(=O)CN(C)N2C(=O)NCc2ccccc2)[C@@H](Cc2ccc(O)cc2)C(=O)N1Cc1ccc(Cl)c(N(C)C)c1 [Compound 80]	7.9 ± 2 µM
CN1CC(=O)N2[C@@H](Cc3ccc(O)cc3)C(=O)N(Cc3cccc(OCCN4CCOCC4)c3)C[C@@H]2N1C(=O)NCc1ccccc1 [Compound 130]	6.1 ± 0.4 µM
C=CCN1CC(=O)N2[C@@H](Cc3ccc(O)cc3)C(=O)N(Cc3cccc4scnc34)C[C@@H]2N1C(=O)NCc1ccc(Cl)c(Cl)c1 [Compound 210]	0.9 ± 0.1 µM
CC(C)N(C)c1cccc([C@H](C)N2C[C@H]3N(C(=O)CN(C)N3C(=O)NCc3ccccc3)[C@@H](Cc3ccc(O)cc3)C2=O)c1 [Compound 66]	11.8 µM
C=CCN1CC(=O)N2[C@@H](Cc3ccc(O)cc3)C(=O)N(Cc3cccc(NC)c3)C[C@@H]2N1C(=O)NCc1ccccc1 [Compound 193]	2.5 ± 0.5 µM
CN1CC(=O)N2[C@@H]([C@H](O)c3ccc(O)cc3)C(=O)N(Cc3ccc(F)cc3F)C[C@@H]2N1C(=O)NCc1ccccc1 [Compound 113]	7.3 ± 1.1 µM
C=CCN1CC(=O)N2[C@@H](Cc3ccc(O)cc3)C(=O)N(Cc3cccc4sc(N5CCCCC5)nc34)C[C@@H]2N1C(=O)NCc1ccccc1 [Compound 218]	1.6 ± 1.2 µM
C=CCN1CC(=O)N2[C@@H](Cc3ccc(O)cc3)C(=O)N(Cc3cccc(N4CCCC4=O)c3)C[C@@H]2N1C(=O)NCc1ccccc1 [Compound 152]	1.2 ± 0.3 µM
CC(C)N(C)c1cc([C@@H](C)N2C[C@H]3N(C(=O)CN(C)N3C(=O)NCc3ccccc3)[C@@H](Cc3ccc(O)cc3)C2=O)ccc1F [Compound 62]	9.7 ± 1.7 µM
C=CCN1CC(=O)N2[C@@H](Cc3ccc(O)cc3)C(=O)N(Cc3cccc4cccnc34)C[C@@H]2N1C(=O)NCc1ccc(Cl)c(Cl)c1 [Compound 199]	1 ± 0.2 µM
C[C@H](c1ccc(F)cc1F)N1CC2N(C(=O)CN(C)N2C(=O)NCc2ccccc2)[C@@H](Cc2ccc(O)cc2)C1=O (stereo partly drawn) [Compound 195]	22.3 ± 2.3 µM
C=CCN1CC(=O)N2[C@@H](Cc3ccc(O)cc3)C(=O)N(Cc3cc(C)cc4c3N(C)CCO4)C[C@@H]2N1C(=O)NCc1ccccc1 [Compound 167]	1.3 ± 0.1 µM
C=CCN1CC(=O)N2[C@@H](Cc3ccc(O)cc3)C(=O)N(Cc3cccc(N4CCOCC4)c3)C[C@@H]2N1C(=O)NCc1ccccc1 [Compound 127]	1.8 ± 0.2 µM
C=CCN1CC(=O)N2[C@@H](Cc3ccc(O)cc3)C(=O)N(Cc3ccc(Cl)c(Cl)c3)C[C@@H]2N1C(=O)NCc1ccccc1 [Compound 180]	1.3 ± 0.1 µM
C=CCN1CC(=O)N2[C@@H](Cc3ccc(O)cc3)C(=O)N([C@@H](C)c3ccc(Cl)c4cccnc34)C[C@@H]2N1C(=O)NCc1ccccc1 [Compound 185]	23.4 ± 1.9 µM
C=CCN1CC(=O)N2[C@@H](Cc3ccc(O)cc3)C(=O)N(Cc3cccc4sc(N5CCOCC5)nc34)C[C@@H]2N1C(=O)NCc1ccccc1 [Compound 219]	2.2 ± 0.7 µM

Other lines, results leading:

IC50	Structure (SMILES)
1.4 µM	CN(C)c1cc(F)c(F)cc1CN1C[C@H]2N(C(=O)CN(C)N2C(=O)NCc2ccccc2)[C@@H](Cc2ccc(O)cc2)C1=O [Compound 49]
4.4 µM	CCN(C)c1cccc(CN2C[C@H]3N(C(=O)CN(C)N3C(=O)NCc3ccccc3)[C@@H](Cc3ccc(O)cc3)C2=O)c1 [Compound 46]
4.2 µM	CN1CC(=O)N2C(CN(Cc3cccc(C(F)(F)F)c3)C(=O)[C@@H]2Cc2ccc(O)cc2)N1C(=O)NCc1ccccc1 (stereo partly drawn) [Compound 15]
2.1 ± 0.2 µM	CN1CC(=O)N2[C@@H](Cc3ccc(O)cc3)C(=O)N(Cc3cccc4cnn(Cc5ccccc5[N+](=O)[O-])c34)C[C@@H]2N1C(=O)NCc1ccccc1 [Compound 74]
50.5 ± 18.4 µM	CN1CC(=O)N2[C@@H](Cc3ccc(O)cc3)C(=O)N(Cc3cccc4nnn(C)c34)C[C@@H]2N1C(=O)NCc1ccccc1 [Compound 75]
13.9 µM	CN1CC(=O)N2C(Cc3ccc(O)cc3)C(=O)N(Cc3cccc4ccccc34)CC2N1C(=O)NCc1ccc(Cl)c(Cl)c1 (stereo not drawn) [Compound 3]
17.7 µM	CN1CC(=O)N2C(CN(Cc3cc(F)ccc3F)C(=O)[C@@H]2Cc2ccc(O)cc2)N1C(=O)NCc1ccccc1 (stereo partly drawn) [Compound 14]
1.6 ± 0.1 µM	C#CCN1CC(=O)N2[C@@H](Cc3ccc(O)cc3)C(=O)N(Cc3cc(F)c(F)cc3N(C)C)C[C@@H]2N1C(=O)NCc1ccccc1 [Compound 108]
1.3 µM	CN(C)c1cc(F)ccc1CN1C[C@H]2N(C(=O)CN(C)N2C(=O)NCc2ccccc2)[C@@H](Cc2ccc(O)cc2)C1=O [Compound 50]
1.3 µM	CN1CC(=O)N2[C@@H](Cc3ccc(O)cc3)C(=O)N(Cc3ccc(F)cc3C(F)(F)F)C[C@@H]2N1C(=O)NCc1ccccc1 [Compound 44]
7.5 µM	CN1CC(=O)N2[C@@H](Cc3ccc(O)cc3)C(=O)N(Cc3ccccc3OC(F)(F)F)C[C@@H]2N1C(=O)NCc1ccccc1 [Compound 30]
0.3 ± 0.04 µM	C=CCN1CC(=O)N2[C@@H](Cc3ccc(O)cc3)C(=O)N(Cc3cccc4c3N(C)CCO4)C[C@@H]2N1C(=O)NCc1ccccc1 [Compound 145]
8.1 ± 0.8 µM	CN(C)CCn1ncc2cccc(CN3C[C@H]4N(C(=O)CN(C)N4C(=O)NCc4ccccc4)[C@@H](Cc4ccc(O)cc4)C3=O)c21 [Compound 87]
13 µM	CN1CC(=O)N2[C@@H](Cc3ccc(O)cc3)C(=O)N(Cc3cccc4ncccc34)C[C@@H]2N1C(=O)NCc1ccccc1 [Compound 33]
62 ± 17 µM	C#CCNC(=O)N1[C@H]2CN(Cc3cccc4ccccc34)C(=O)[C@H](Cc3ccc(O)cc3)N2C(=O)CN1C [Compound 102]
6.5 ± 0.7 µM	CN1CC(=O)N2[C@@H](Cc3ccc(O)cc3)C(=O)N(Cc3cccc(N4CCCCC4)c3)C[C@@H]2N1C(=O)NCc1ccccc1 [Compound 71]
< 1.6 µM	C=CCN1CC(=O)N2[C@@H](Cc3ccc(O)cc3)C(=O)N(Cc3cccc4sc(Cl)nc34)C[C@@H]2N1C(=O)NCc1ccccc1 [Compound 217]
8 ± 0.7 µM	CN(C)Cc1cccc(CN2C[C@H]3N(C(=O)CN(C)N3C(=O)NCc3ccccc3)[C@@H](Cc3ccc(O)cc3)C2=O)c1 [Compound 116]
4 ± 0.4 µM	CC(C)N1CC(=O)N2[C@@H](Cc3ccc(O)cc3)C(=O)N(Cc3ccc(F)cc3F)C[C@@H]2N1C(=O)NCc1ccccc1 [Compound 176]
0.4 ± 0.04 µM	C#CCN1CC(=O)N2[C@@H](Cc3ccc(O)cc3)C(=O)N(Cc3cccc4cccnc34)C[C@@H]2N1C(=O)NCc1ccccc1 [Compound 114]
2.7 ± 0.3 µM	CN1CC(=O)N2[C@@H](Cc3ccc(O)cc3)C(=O)N(Cc3cccc4nn(CCN5CCOCC5)cc34)C[C@@H]2N1C(=O)NCc1ccccc1 [Compound 100]
1.6 ± 0.4 µM	C=CCN1CC(=O)N2[C@@H](Cc3ccc(O)cc3)C(=O)N(Cc3ccc(OC)cc3)C[C@@H]2N1C(=O)NCc1ccccc1 [Compound 208]
5.8 ± 0.4 µM	CN1CC(=O)N2[C@@H](Cc3ccc(O)cc3)C(=O)N(Cc3ccc(F)cc3F)C[C@@H]2N1C(=O)NCc1ccc(Br)cc1 [Compound 201]
7.5 µM	CN1CC(=O)N2[C@@H](Cc3ccc(O)cc3)C(=O)N(Cc3ccc(Cl)cc3)C[C@@H]2N1C(=O)NCc1ccccc1 [Compound 28]
